Measurements as given in PubChem BioAssay (NCI).
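In this assay, cells in 96-well plates receive the compound at five concentrations for 48 hours. Endpoints are linearly interpolated between the surrounding concentrations. Definition used: TGI = concentration required for complete inhibition of growth.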

What was measured:
Experiment in all cases: NCI-60 cell line screen, 48 h
LOX IMVI melanoma = test system: LOX IMVI melanoma
T-47D breast = test system: T-47D breast
UO-31 renal = test system: UO-31 renal
HCT-15 colon = test system: HCT-15 colon
UACC-62 melanoma = test system: UACC-62 melanoma
HCC-2998 colon = test system: HCC-2998 colon
786-0 renal = test system: 786-0 renal
DU-145 prostate = test system: DU-145 prostate
SNB-19 CNS = test system: SNB-19 CNS
SF-539 CNS = test system: SF-539 CNS
HOP-62 NSCLC = test system: HOP-62 NSCLC
M14 melanoma = test system: M14 melanoma
HS 578T breast = test system: HS 578T breast
BT-549 breast = test system: BT-549 breast

Compound | TGI (LOX IMVI melanoma) | TGI (T-47D breast) | TGI (UO-31 renal) | TGI (HCT-15 colon) | TGI (UACC-62 melanoma) | TGI (HCC-2998 colon) | TGI (786-0 renal) | TGI (DU-145 prostate) | TGI (SNB-19 CNS) | TGI (SF-539 CNS) | TGI (HOP-62 NSCLC) | TGI (M14 melanoma) | TGI (HS 578T breast) | TGI (BT-549 breast)
COc1ccc(Nc2nc(N)c(C(=O)c3ccc(OC)cc3)s2)cc1 | > 100 µM | > 100 µM | 44.3 µM | > 100 µM | > 100 µM | > 29.7 µM | > 41.9 µM | 6.94 µM | > 49.5 µM | 23 µM |  |  |  | 
CO[C@@](c1ccccc1)(c1nc(C#N)c(N)o1)C(F)(F)F | > 100 µM | > 100 µM | > 100 µM | > 100 µM | > 100 µM | > 100 µM | > 100 µM | > 100 µM | > 100 µM | > 100 µM | > 100 µM | > 100 µM |  | 
CC1(C)OC(=O)C(C)(C)OC1=O | > 100 µM | > 100 µM | > 100 µM | > 100 µM | > 100 µM |  | > 100 µM | > 100 µM | > 100 µM | > 100 µM | > 100 µM | > 100 µM | > 100 µM | 
COc1ccc2c(c1)N(C(C)=O)CN1C(=O)CCC21 (stereo not drawn) | > 100 µM | > 100 µM | > 100 µM | > 100 µM | > 100 µM | > 100 µM | > 100 µM | > 100 µM | > 100 µM | > 100 µM | > 100 µM | > 100 µM | > 100 µM | 
O=C(O)c1cc(-c2ccccc2O)nc2ccccc12 |  |  | > 100 µM | > 100 µM | > 100 µM | > 100 µM | > 100 µM |  | > 100 µM | > 100 µM | > 100 µM | > 100 µM |  | 
NC12CC3CC(C1)CC(Cl)(C3)C2 | > 100 µM |  | > 100 µM |  | > 100 µM | > 100 µM | > 100 µM |  |  | > 100 µM | > 100 µM | > 100 µM |  | 
COC1=CC(C2c3cc4c(cc3[C@@H](Nc3ccc([N+](=O)[O-])cc3)C3COC(=O)[C@H]23)OCO4)=CC(=O)C1=O (stereo partly drawn) | 13.2 µM |  | 20.7 µM | 34.1 µM | 8.96 µM | 14.5 µM | 4.86 µM |  | > 86.5 µM | 6.05 µM | 2.47 µM | > 37.7 µM |  | 
C#CCCOC1(OC)N=NC(C)(C)O1 (stereo not drawn) | > 100 µM | > 100 µM | > 100 µM | > 100 µM | > 100 µM | > 100 µM | > 100 µM | > 100 µM | > 100 µM | > 100 µM | > 100 µM | > 100 µM | > 100 µM | 
CC1=NN2C(=O)CC(=O)N=C2S1 | > 100 µM | > 100 µM |  | > 100 µM | > 100 µM |  | > 100 µM | > 100 µM | > 100 µM | > 100 µM | > 100 µM | > 100 µM | > 100 µM | > 100 µM
COC(=O)C(/C(=N/N)C(=O)Nc1cc(Cl)c(Cl)cc1Cl)c1nc2ccc(Cl)cc2[nH]c1=O (stereo not drawn) | > 100 µM | > 100 µM | > 100 µM | > 100 µM | > 100 µM |  | > 100 µM |  |  | > 100 µM | > 100 µM | > 100 µM | > 100 µM | > 100 µM
C=CCNC(=O)/C(Cc1cc(Br)c(OC)c(Br)c1O)=N\O | 55 µM |  | 15.6 µM | 21.7 µM | 34.8 µM | 14.2 µM | 7.28 µM | 25.1 µM | 58.9 µM | 14.6 µM | 22.9 µM | 23.6 µM | 4.23 µM | 18.3 µM
COc1cccc(/C(C=O)=C(\Cl)c2ccc(OC)c(OC)c2)c1 | 28.7 µM |  | 28.2 µM | 25.6 µM | 17.4 µM | 29.8 µM | 30.7 µM |  | 16.3 µM | 30.4 µM | 25.1 µM | 31.6 µM |  | 
O=C1/C(=C/c2ccc(Cl)cc2)NC(=S)N1CN1CCOCC1 | > 100 µM |  | > 100 µM | > 100 µM | > 100 µM |  | > 100 µM | > 100 µM | > 100 µM |  | > 100 µM | > 100 µM | > 100 µM | 
CC(=O)OC1OC2C(NC(=O)OC(C)(C)C)C1CC2(OCc1ccccc1)OCc1ccccc1 (stereo not drawn) |  |  | 30.3 µM | > 100 µM | 42.2 µM | 40.7 µM | 56.8 µM |  | > 100 µM | 33.8 µM | 76.3 µM | 50.6 µM |  | 
O=C1Nc2ccccc2[C@]12C[C@H]2c1ccccn1 | > 100 µM | > 100 µM | > 100 µM | > 100 µM | > 100 µM | > 100 µM | > 100 µM | > 100 µM | > 100 µM | > 100 µM | > 100 µM | > 100 µM |  | > 100 µM
NC(=O)c1csc(CCCCCCc2nc(C(N)=O)cs2)n1 | > 100 µM |  | > 100 µM | > 100 µM | > 100 µM | > 100 µM | > 73.7 µM |  | > 100 µM | > 100 µM | > 100 µM | > 100 µM |  | 
CC(=O)NCC1(c2ccccc2)CCN(CC2COc3ccccc3O2)CC1 (stereo not drawn) | > 100 µM | > 100 µM | > 100 µM | > 100 µM | > 100 µM | > 100 µM | > 100 µM | > 100 µM | > 100 µM | > 100 µM | > 100 µM | > 100 µM | > 100 µM | 
Nc1nc(N)nc(-c2cnccn2)n1 | > 100 µM | > 100 µM | > 100 µM | > 100 µM | > 100 µM | > 100 µM | > 100 µM | > 100 µM | > 100 µM | > 100 µM | > 100 µM | > 100 µM |  | > 100 µM
NC(=O)C(=CN1C(=O)CC(=O)NC1=S)C(N)=O | > 100 µM | > 100 µM | > 100 µM | > 100 µM |  | > 100 µM | > 100 µM | > 100 µM | > 100 µM | > 100 µM | > 100 µM | > 100 µM |  | > 100 µM
